Test results from patent publication US20240425464A1, “Substituted Monohydrazides as Potent Antifungal Agents” (University of Kentucky Research Foundation, priority 2023, published 2024).
Values after ≈ are worked out from the molar mass of the structure shown.

Columns and labels:
[1] = test system: panel of ten C. auris strains (AR Bank #381-390); assay: MIC determination, summary over the C. auris panel; assay type: cell-based, Candida auris; settings: Candidozyma auris; against all ten C. auris strains tested (AR Bank #381-390)
Summary of the method: (§1)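 RPMI 1640 (L-glutamine, no bicarbonate), 0.165 M MOPS, pH 7.0, 35° C. Inoculum: growing culture set to OD600 0.12 (˜1×10^6 CFU/mL), diluted 1:100. CDC AR Bank isolates.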

[2] = test system: C. auris AR Bank #382; assay: MIC determination by in vitro antifungal assay; assay type: cell-based, Candida auris; settings: Candidozyma auris; C. auris AR Bank #382; read-out: MIC
Summary of the method: as §1

[3] = test system: C. auris AR Bank #389; assay: MIC determination by in vitro antifungal assay; assay type: cell-based, Candida auris; settings: Candidozyma auris; C. auris AR Bank #389; read-out: MIC
Summary of the method: as §1

[4] = test system: C. auris AR Bank #387; assay: MIC determination by in vitro antifungal assay; assay type: cell-based, Candida auris; settings: Candidozyma auris; C. auris AR Bank #387; read-out: MIC
Summary of the method: as §1

[5] = test system: C. auris AR Bank #386; assay: MIC determination by in vitro antifungal assay; assay type: cell-based, Candida auris; settings: Candidozyma auris; C. auris AR Bank #386; read-out: MIC
Summary of the method: as §1

[6] = test system: C. auris AR Bank #383; assay: MIC determination by in vitro antifungal assay; assay type: cell-based, Candida auris; settings: Candidozyma auris; C. auris AR Bank #383; read-out: MIC
Summary of the method: as §1

[7] = test system: C. auris AR Bank #385; assay: MIC determination by in vitro antifungal assay; assay type: cell-based, Candida auris; settings: Candidozyma auris; C. auris AR Bank #385; read-out: MIC
Summary of the method: as §1

[8] = test system: C. auris AR Bank #388; assay: MIC determination by in vitro antifungal assay; assay type: cell-based, Candida auris; settings: Candidozyma auris; C. auris AR Bank #388; read-out: MIC
Summary of the method: as §1

[9] = test system: C. auris AR Bank #381; assay: MIC determination by in vitro antifungal assay; assay type: cell-based, Candida auris; settings: Candidozyma auris; C. auris AR Bank #381; read-out: MIC
Summary of the method: as §1

[10] = test system: Candida duobushaemulonii AR Bank #392; assay: MIC determination by in vitro antifungal assay; assay type: cell-based; settings: Candidozyma duobushaemuli, read-out: MIC
Procedure: (§2) The antifungal agent amphotericin B (AmB) was purchased from VWR (Radnor PA, USA). AmB was dissolved in DMSO at a final concentration of 5 mg/mL and was stored at −20° C., protected from light. Candida albicans American Type Culture Collection (ATCC) 10231 (strain A), C. albicans ATCC 64124 (B), and C. albicans ATCC MYA-2876 (C) were obtained from Utah State University. C. albicans ATCC 90819 (D), C. albicans ATCC MYA-2310 (E), C. albicans ATCC MYA-1237 (F), C. albicans ATCC MYA-1003 (G), Candida glabrata ATCC 2001 (H), Candida krusei ATCC 6258 (I), Candida parapsilosis ATCC 22019 (J), Cryptococcus neoformans ATCC MYA-895 (M), Aspergillus terreus ATCC MYA-3633 (N), and Aspergillus flavus ATCC MYA-3631 (0) were obtained from the American Type Culture Collection (ATCC; Manassas, VA, USA). Aspergillus nidulans ATCC 38163 (P) was obtained from University of Kentucky. Clinically derived Aspergillus fumigatus NRRL 163 (Q), A. fumigatus NRRL 5109 (R), and A. fumigatus NRRL 6113 (S) were obtained from Northern Regional Research Laboratory (NRRL). Candida auris 384 (K), C. auris 390 (L), and fungal strains 381-400 (including 10 C. auris (AR Bank #381-390), 3 Candida duobushaemulonii (AR Bank #391, AR Bank #392, and AR Bank #394), 2 Candida haemulonii (AR Bank #393 and AR Bank #395), 1 Kodameae ohmeri (AR Bank #396), 1 C. krusei (AR Bank #397), 1 Candida lusitaniae (AR Bank #398), and 2 Saccharomyces cerevisiae strains (AR Bank #399 and AR Bank #400)) were part of a larger fungal library from the AR Bank maintained by the Centers for Disease Control and Prevention (CDC; Atlanta, GA, USA). Filamentous fungi and yeasts were cultivated at 35° C. in RPMI 1640 medium (with L-glutamine, without sodium bicarbonate, Sigma-Aldrich, St. Louis, MO) buffered to a pH of 7.0 with 0.165 M morpholinepropanesulfonic acid (MOPS) buffer (Sigma-Aldrich). For cytotoxicity assays, HepG2 and the mouse macrophage cell line J774A.1 were obtained from University of Kentucky. The human embryonic kidney cell line, HEK-293, was bought from the ATCC. Mammalian cells were grown in Dulbecco's Modified Eagle's Medium (DMEM) (from VWR) with 10% fetal bovine serum (FBS) (from VWR) and 1% Pen/Strep (from ATCC). Cell lines were cultured at 37° C. with 5% CO2 and passaged by trypsinization with 0.05% trypsin: 0.53 mM EDTA (from Sigma-Aldrich).
(§3) From the actively growing yeast culture, 100 µL were then transferred to 900 μL of RPMI 1640 medium and re-adjusted to achieve OD600 of 0.12 (˜1×10^6 CFU/mL). The cell suspension was further diluted to achieve 1:100 in RPMI 1640 medium.

[11] = test system: Candida duobushaemulonii AR Bank #394; assay: MIC determination by in vitro antifungal assay; assay type: cell-based; settings: Candidozyma duobushaemuli, read-out: MIC
Procedure: as §2, §3

[12] = test system: Kodameae ohmeri AR Bank #396; assay: MIC determination by in vitro antifungal assay; assay type: cell-based; settings: strain AR Bank #396; read-out: MIC
Procedure: as §2, §3

[13] = test system: Candida haemulonii AR Bank #395; assay: MIC determination by in vitro antifungal assay; assay type: cell-based; settings: Candidozyma haemuli, read-out: MIC
Procedure: as §2, §3

[14] = test system: Saccharomyces cerevisiae AR Bank #399; assay: MIC determination by in vitro antifungal assay; assay type: cell-based; settings: read-out: MIC
Procedure: as §2, §3

[15] = test system: Candida lusitaniae AR Bank #398; assay: MIC determination by in vitro antifungal assay; assay type: cell-based; settings: Clavispora lusitaniae; Candida strain AR Bank #398; read-out: MIC
Procedure: as §2, §3

[16] = test system: Candida krusei AR Bank #397; assay: MIC determination by in vitro antifungal assay; assay type: cell-based; settings: Pichia kudriavzevii; Candida strain AR Bank #397; read-out: MIC
Procedure: as §2, §3

[17] = test system: Candida duobushaemulonii AR Bank #391; assay: MIC determination by in vitro antifungal assay; assay type: cell-based; settings: Candidozyma duobushaemuli, read-out: MIC
Procedure: as §2, §3

[18] = test system: Candida haemulonii AR Bank #393; assay: MIC determination by in vitro antifungal assay; assay type: cell-based; settings: Candidozyma haemuli, read-out: MIC
Procedure: as §2, §3

[19] = test system: ten other fungal strains (AR Bank #391-400); assay: MIC determination, summary over ten additional fungal strains; assay type: cell-based; settings: read-out: MIC range
Procedure: as §2, §3

Row | Structure (SMILES) | MIC [1] | MIC [2] | MIC [3] | MIC [4] | MIC [5] | MIC [6] | MIC [7] | MIC [8] | MIC [9] | MIC [10] | MIC [11] | MIC [12] | MIC [13] | MIC [14] | MIC [15] | MIC [16] | MIC [17] | MIC [18] | MIC [19]
1 | O=C(NNc1cc(F)cc(F)c1)c1ccccn1 [Compound 2i] | 0.06 to 1.95 µg/mL (≈ 0.241 to 7.82 µM) | 0.12 µg/mL (≈ 0.482 µM) | 0.24 µg/mL (≈ 0.963 µM) | 0.24 µg/mL (≈ 0.963 µM) | ≤ 0.06 µg/mL | 0.24 µg/mL (≈ 0.963 µM) | 0.24 µg/mL (≈ 0.963 µM) | 0.24 µg/mL (≈ 0.963 µM) | 0.98 µg/mL (≈ 3.93 µM) | 0.49 µg/mL (≈ 1.97 µM) | 0.24 µg/mL (≈ 0.963 µM) | 0.12 µg/mL (≈ 0.482 µM) | 0.24 µg/mL (≈ 0.963 µM) | 1.95 µg/mL (≈ 7.82 µM) | 0.49 µg/mL (≈ 1.97 µM) | 0.12 µg/mL (≈ 0.482 µM) | 0.24 µg/mL (≈ 0.963 µM) | 0.49 µg/mL (≈ 1.97 µM) | 0.06 to 1.95 µg/mL (≈ 0.241 to 7.82 µM)
2 | O=C(NNc1cc(Cl)cc(Cl)c1)c1ccccn1 [Compound 2j] | 0.12 to 7.8 µg/mL (≈ 0.425 to 27.6 µM) | 0.98 µg/mL (≈ 3.47 µM) | 1.95 µg/mL (≈ 6.91 µM) | 0.98 µg/mL (≈ 3.47 µM) | 1.98 µg/mL (≈ 7.02 µM) | 1.95 µg/mL (≈ 6.91 µM) | 1.95 µg/mL (≈ 6.91 µM) | 3.9 µg/mL (≈ 13.8 µM) | 3.9 µg/mL (≈ 13.8 µM) | 0.98 µg/mL (≈ 3.47 µM) | 0.49 µg/mL (≈ 1.74 µM) | 0.49 µg/mL (≈ 1.74 µM) | 0.24 µg/mL (≈ 0.851 µM) | 3.9 µg/mL (≈ 13.8 µM) | 3.9 µg/mL (≈ 13.8 µM) | 0.49 µg/mL (≈ 1.74 µM) | 0.98 µg/mL (≈ 3.47 µM) | 0.24 µg/mL (≈ 0.851 µM) | 0.06 to 7.8 µg/mL (≈ 0.213 to 27.6 µM)
3 | O=C(NNc1cccc(Cl)c1)c1cnccn1 [Compound 9b] | 0.06 to 1.95 µg/mL (≈ 0.241 to 7.84 µM) | 0.12 µg/mL (≈ 0.483 µM) | 0.24 µg/mL (≈ 0.965 µM) | 0.24 µg/mL (≈ 0.965 µM) | ≤ 0.06 µg/mL | 0.24 µg/mL (≈ 0.965 µM) | 0.24 µg/mL (≈ 0.965 µM) | 0.24 µg/mL (≈ 0.965 µM) | 0.49 µg/mL (≈ 1.97 µM) | 0.12 µg/mL (≈ 0.483 µM) | 0.12 µg/mL (≈ 0.483 µM) | 0.12 µg/mL (≈ 0.483 µM) | 0.24 µg/mL (≈ 0.965 µM) | 0.98 µg/mL (≈ 3.94 µM) | 0.49 µg/mL (≈ 1.97 µM) | 0.12 µg/mL (≈ 0.483 µM) | 0.24 µg/mL (≈ 0.965 µM) | 0.24 µg/mL (≈ 0.965 µM) | 0.06 to 1.95 µg/mL (≈ 0.241 to 7.84 µM)
4 | COc1ccc(NNC(=O)c2cnccn2)cc1 [Compound 9f] | 0.06 to 1.95 µg/mL (≈ 0.246 to 7.98 µM) | 0.98 µg/mL (≈ 4.01 µM) | 0.98 µg/mL (≈ 4.01 µM) | 1.95 µg/mL (≈ 7.98 µM) | 0.49 µg/mL (≈ 2.01 µM) | 0.98 µg/mL (≈ 4.01 µM) | 0.98 µg/mL (≈ 4.01 µM) | 0.98 µg/mL (≈ 4.01 µM) | 1.95 µg/mL (≈ 7.98 µM) | 0.49 µg/mL (≈ 2.01 µM) | 0.49 µg/mL (≈ 2.01 µM) | 0.98 µg/mL (≈ 4.01 µM) | 0.49 µg/mL (≈ 2.01 µM) | 0.98 µg/mL (≈ 4.01 µM) | 0.98 µg/mL (≈ 4.01 µM) | 0.49 µg/mL (≈ 2.01 µM) | 0.49 µg/mL (≈ 2.01 µM) | 0.24 µg/mL (≈ 0.983 µM) | 0.06 to 1.95 µg/mL (≈ 0.246 to 7.98 µM)
5 | O=C(NNc1ccc(F)cc1F)c1cnccn1 [Compound 9g] | 0.12 to 7.8 µg/mL (≈ 0.48 to 31.2 µM) | 1.95 µg/mL (≈ 7.79 µM) | 0.49 µg/mL (≈ 1.96 µM) | 0.49 µg/mL (≈ 1.96 µM) | 0.49 µg/mL (≈ 1.96 µM) | 0.98 µg/mL (≈ 3.92 µM) | 0.98 µg/mL (≈ 3.92 µM) | 0.49 µg/mL (≈ 1.96 µM) | 3.9 µg/mL (≈ 15.6 µM) | 0.24 µg/mL (≈ 0.959 µM) | 7.8 µg/mL (≈ 31.2 µM) | 0.98 µg/mL (≈ 3.92 µM) | 1.95 µg/mL (≈ 7.79 µM) | 7.8 µg/mL (≈ 31.2 µM) | 3.9 µg/mL (≈ 15.6 µM) | 1.95 µg/mL (≈ 7.79 µM) | 0.49 µg/mL (≈ 1.96 µM) | 0.24 µg/mL (≈ 0.959 µM) | 0.06 to 7.8 µg/mL (≈ 0.24 to 31.2 µM)
